ChEMBL document CHEMBL1143338, “Design of beta-hairpin peptides for modulation of cell adhesion by beta-turn constraint” (J Med Chem, 2009)
Positions of bridges follow the written chain, without caps; N, C: chain ends. Residues, ends and D or L forms follow the SMILES beside them.

Experiments:
Assay type in all cases: cell-based
[1] = Cytotoxicity against human Caco-2 cells assessed as cell viability at 180 uM after 2 hrs by MTT assay; conditions: read-out: Activity
Jurkat = experiment: Inhibition of CD2-CD58 interaction assessed as inhibition of CD2 expressing human Jurkat T cell to CD58 expressing sheep RBC adhesion-associated E-rosette formation at 180 uM after 45 mins by microplate fluorescence analysis
[2] = target: T1, T-cell surface antigen CD2 (Homo sapiens) (UniProt P06729); experiment: Inhibition of CD2-CD58 interaction assessed as inhibition of CD2 expressing human Jurkat T cell adhesion to CD58 expressing human Caco-2 cells at 90 uM after 45 mins by microplate fluorescence analysis
T1 sequence (whole entry): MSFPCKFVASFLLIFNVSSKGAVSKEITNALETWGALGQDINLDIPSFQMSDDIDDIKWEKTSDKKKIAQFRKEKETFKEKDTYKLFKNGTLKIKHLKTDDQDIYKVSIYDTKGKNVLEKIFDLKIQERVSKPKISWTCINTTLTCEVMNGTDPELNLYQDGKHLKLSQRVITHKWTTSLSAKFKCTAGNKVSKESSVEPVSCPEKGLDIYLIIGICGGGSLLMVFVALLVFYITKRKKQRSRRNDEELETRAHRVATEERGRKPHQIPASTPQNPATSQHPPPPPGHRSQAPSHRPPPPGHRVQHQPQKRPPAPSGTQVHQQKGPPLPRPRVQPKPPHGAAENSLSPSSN

[3] = target: T1, T-cell surface antigen CD2 (Homo sapiens); experiment: Inhibition of CD2-CD58 interaction assessed as inhibition of CD2 expressing human Jurkat T cell adhesion to CD58 expressing human Caco-2 cells after 45 mins by microplate fluorescence analysis relative to control
[4] = target: T2, Lymphocyte function-associated antigen 3 (Homo sapiens) (UniProt P19256); experiment: Inhibition of antiCD58-FITC binding to CD58 in human Caco-2 cells at 180 uM after 1 hr by fluorescence analysis relative to control
T2 sequence (whole entry): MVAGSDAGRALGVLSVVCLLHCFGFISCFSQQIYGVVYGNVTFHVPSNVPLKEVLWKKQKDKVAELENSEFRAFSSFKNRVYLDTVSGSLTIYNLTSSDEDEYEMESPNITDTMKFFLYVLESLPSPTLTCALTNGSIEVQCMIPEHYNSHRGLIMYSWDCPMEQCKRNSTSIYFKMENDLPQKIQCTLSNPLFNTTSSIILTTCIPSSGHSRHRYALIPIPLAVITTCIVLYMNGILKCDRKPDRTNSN

inhibition [2] [%]	Activity [3]	inhibition [4] [%]	Compound	viability at 2 h, 180 µM [1] [%]	inhibition (Jurkat) [%]
–	–	–	CC[C@H](C)[C@@H]1NC(=O)[C@H](CC(=O)O)NC(=O)[C@H](CC(=O)O)NC(=O)CNC(=O)[C@@H]2CCCN2C(=O)[C@H](CC(=O)O)NC(=O)[C@H](Cc2ccc(O)cc2)NC(=O)[C@H]([C@@H](C)CC)NC(=O)[C@H](CCC(=O)O)NC(=O)[C@H](CCCCN)NC1=O	> 80	–
30	–	–	CC[C@H](C)[C@@H]1NC(=O)[C@H](CO)NC(=O)[C@@H](N)C(C)(C)SSC[C@@H](C(=O)O)NC(=O)[C@@H](CCCCN)NC(=O)[C@H]([C@@H](C)CC)NC(=O)[C@H](CC(=O)O)NC(=O)[C@H](CC(=O)O)NC(=O)CNC(=O)[C@@H]2CCCN2C(=O)[C@H](CC(=O)O)NC(=O)[C@H](Cc2ccc(O)cc2)NC1=O	> 80	20
80	Dose-dependent effect	–	CC[C@H](C)[C@@H]1NC(=O)[C@H](CC(=O)O)NC(=O)[C@@H](CC(=O)O)NC(=O)CNC(=O)[C@@H]2CCCN2C(=O)[C@H](CC(=O)O)NC(=O)[C@H](Cc2ccc(O)cc2)NC(=O)[C@H]([C@@H](C)CC)NC(=O)[C@H](CCC(=O)O)NC(=O)[C@H](CCCCN)NC1=O	–	60
80	Dose-dependent effect	–	CC[C@H](C)[C@@H]1NC(=O)[C@H](CC(=O)O)NC(=O)[C@H](CC(=O)O)NC(=O)CNC(=O)[C@@H]2CCCN2C(=O)[C@H](CC(=O)O)NC(=O)[C@H](Cc2ccc(O)cc2)NC(=O)[C@H]([C@@H](C)CC)NC(=O)[C@@H](N)CCC(=O)NCCCC[C@@H](C(=O)O)NC1=O (H-EIYDPGDDIK-OH; lactam 1-10)	> 80	50
80	Dose-dependent effect	45	CC[C@H](C)[C@@H]1NC(=O)[C@H](CC(=O)O)NC(=O)[C@H](CC(=O)O)NC(=O)CNC(=O)[C@@H]2CCCN2C(=O)[C@H](CC(=O)O)NC(=O)[C@H](Cc2ccc(O)cc2)NC(=O)[C@H]([C@@H](C)CC)NC(=O)[C@H](CO)NC(=O)[C@@H](N)CCC(=O)NCCCC[C@@H](C(=O)O)NC1=O (H-ESIYDPGDDIK-OH; lactam 1-11)	> 80	60
